Measured values as given in patent US6900026B2, “Methods for identifying compounds as antioxidants” (priority 1996, dated 2005).

Columns and labels:
[1] = test system: Sod2CJE(−/−) mice; assay: Survival (lifespan) of Sod2CJE(−/−) mice given daily intraperitoneal test compound; type: in vivo, mouse; details: for mean life-span: Sod2CJE(−/−) pups, Euk-8 daily 30 mg/kg, MnTBAP-treated pups
Procedure: Mice lacking functional MnSOD have been described by Li et al. (1995) Nature Genetics 11:376-381, incorporated herein by reference. The genotypes of one-day-old pups are determined by genetic analysis of tissue surgically excised from the toe or tail tip (2-3 mm). In these mice the third exon of the Sod2 gene has been deleted, thus, destroying the ability to synthesize an active mitochondrial MnSOD.
Litters were grouped into two sizes: large, >6 pups/litter of mutant, heterozygous and normal pups; and small, ≦6 Sod2CJE(−/−) pups/litter, in which the wild type and heterozygous pups were removed at three days of age to ensure that the homozygous mutant pups had unrestricted access to food and nurturing.
(§1) In most experiments, MnTBAP was prepared for injection by dissolving in 0.1 M NaOH, diluted with sterile water to a dosage level of 5 mg MnTBAP/kg, and administered by daily intra-peritoneal (IP) injections of between 10 and 45 μl, 2 hours post weighing, from 3 days of age. In addition to homozygous mutant animals, both heterozygotes and wild-type animals were injected to serve as controls. Wild-type or heterozygous Sod2CJE pups were sacrificed at the same age as Sod2CJE(−/−) pups to serve as controls.
Mouse pups are injected intraperitoneally with test compounds with a 50 microliter Hamilton syringe and a 31 G needle. The maximum volume administered to pups younger than 6 days of age is 20 μl. Injections are given daily, at the same time per day ±2 hours.
The MnTBAP stock solution is diluted down to the administered dose, which is dependent on body weight. For MnTBAP, the dosage is 5 mg/kg per day. Pups are weighed daily to allow calculation of the appropriate dosage.
Survival analysis was carried out by examining the animals daily to determine mortality, and entering the results into a life-table in the program Statistica (Statsoft, Tulsa, Okla.). Comparison between groups was carried out using the Kaplan and Meier survival function, non-parametric t-tests, and the Gehans Wilcoxon statistic from within the program to compare groups.
In general, experiments are carried out with Sod2CJE(−/−) mice, starting at 3 days of age, and the mice are weighed and divided into test and control groups. Test mice receive the compound for which evaluation as an antioxidant is desired at a dosage which is below the level of toxicity. Unless otherwise indicated, the test compound is administered in a pharmaceutically acceptable carrier by the intraperitoneal route. Unless otherwise determined to be advantageous, the test compound is administered at the same time each day (±2 hours).

[2] = test system: Sod2CJE(−/−) animals; assay: Lipid in liver by Oil red-O staining, treated Sod2CJE(−/−) animals; type: in vivo, mouse; parameters: key to Lipid Mode (score): 0=no observable lipid in sections; 1=mild diffuse speckled distribution of lipid; 2=more intense speckled pattern; 3=coalescence of small lipid droplets into large intercellular droplets; 4=massive intercellular lipid droplet accumulation; details: for Lipid % Control / Lipid Mean (score) / Lipid Mode (score): MnTBAP treated Sod2CJE(−/−); for Lipid % Control: control = untreated (−/−) 6-10 days; for Lipid Mean (score) / Lipid Mode (score): score 0-4; for accumulation of lipid in the liver: treated MnSOD-deficient homozygotes, qualitative
Excerpt: (see also Table 2). […] The level of lipid in liver sections was scored as follows: 0=no observable lipid in sections, 1=mild diffuse speckled distribution of lipid, 2=more intense speckled pattern, 3=coalescence of small lipid droplets into large intercellular droplets, and 4=massive intercellular lipid droplet accumulation. Wild-type or heterozygotes treated with MnTBAP for 3 weeks had no observable difference in the morphology of the liver compared to untreated controls (+/+or +/−). The livers of 25 MnTBAP treated Sod2CJE(−/−) animals were examined at 12, 14 and 17 days of age (Table 2) and compared with treated wild type animals.
Assessment of the effect of MnTBAP treatment on liver morphology was carried out by blind assessment of wild-type and heterozygous animals chronically treated with compound for 3 weeks. Hematoxylin and Eosin stained sections from 27 treated homozygous normal (+/+) and heterozygous (+/−) animals were compared with 2 untreated control animals. To evaluate lipid in the liver of treated homozygous mutant MnSOD(−/−) animals, 8 u frozen sections were prepared and stained with Oil red O [Li et al. (1995) supra]. Each section was evaluated for the quantity and size of lipid droplets by arbitrarily scoring with a numerical value (Table 2). The ratings of multiple animals were then averaged.

[3] = test system: Sod2CJE(−/−) animals; assay: Cardiac measurements and histology in treated Sod2CJE(−/−) animals; type: in vivo, mouse; details: 20-21 days of age
Procedure: Cardiac dimensions were measured at 21 days of age for wild-type and heterozygous animals. These were compared with homozygous mutant animals treated with MnTBAP as described [Li et al. (1995) supra].

[4] = test system: Sod2CJE(−/−) animals; assay: Behavioral analysis and neuropathology of treated Sod2CJE(−/−) animals; type: in vivo; details: for neurological and behavioral phenotype: treated Sod2CJE(−/−) mice
Procedure: Treated Sod2CJE(−/−) animals were observed daily from 10 days through to greater than five weeks for behavioral abnormalities compared to litter mate controls. Daily video recordings of up to 10 minutes were made to longitudinally track the development of behavioral changes. A total of 187 video recordings were made of 63 animals from 10 to 23 days of age.
For pathology, the brains were removed from the sacrificed animals and fixed in 10% buffered formalin for up to 7 days. They were then processed, embedded, and sectioned. In some cases representative sections were made every 20 sections or so at 7 microns thickness throughout the brain and stained with hematoxylin and eosin for examination by light microscopy. In other cases, the entire brain was sectioned at 8 microns throughout. Fifteen Sod2CJE(−/−) brains between 11 and 23 days of age were examined by hematoxylin and eosin staining and light microscopy in coronal, sagittal, or horizontal orientations with 17 controls in a blinded study (4 heterozygotes and 6 wild-types treated; and 2 heterozygotes and 5 wild-types untreated).
During the course of an experiment, each mouse is evaluated daily for weight, lethargy, lack of appetite, its vital signs and for any indication of neurological disorders (observed for circling behavior, dystonia, trembling or the like. Video records can be made for later evaluation, for example for side-by-side comparisons or for observing changes over time. Cardiac histopathology and central nervous system tissue analysis are carried out after death of the animal or after sacrifice of the animal.

[5] = test system: control animals (+/+, +/−); assay: Pathology of liver, brain and heart in treated control animals (+/+, +/−); type: in vivo, mouse; details: control animals (+/+, +/−) treated with MnTBAP
Procedure: as §1
For pathology, the brains were removed from the sacrificed animals and fixed in 10% buffered formalin for up to 7 days. They were then processed, embedded, and sectioned. In some cases representative sections were made every 20 sections or so at 7 microns thickness throughout the brain and stained with hematoxylin and eosin for examination by light microscopy. In other cases, the entire brain was sectioned at 8 microns throughout. […]
Assessment of the effect of MnTBAP treatment on liver morphology was carried out by blind assessment of wild-type and heterozygous animals chronically treated with compound for 3 weeks. […] Each section was evaluated for the quantity and size of lipid droplets by arbitrarily scoring with a numerical value (Table 2). […]

[6] = test system: succinate dehydrogenase (SDH, Complex II); assay: Histochemical staining of succinate dehydrogenase (SDH, Complex II) in tissue of treated MnSOD-deficient homozygotes; type: in vivo, mouse
Excerpt: Fat accumulates in the liver, where it can be detected by Oil Red O staining. […] By contrast, in Euk-8 treated animals both the lipid accumulation in the liver and SDH inhibition are rescued.

[7] = Transmission of orally administered compound to the milk of nursing mothers; type: in vivo, mouse
Excerpt: The skilled artisan understands how to test a particular compound for its toxicity in a particular mammal, for its ability to cross the blood-brain barrier and for its ability to enter the bloodstream and/or the cerebrospinal fluid. Preferred compounds are those which readily enter circulation and the central nervous system so that maximum amelioration of any disorder or disease resulting from oxidative damage, especially from superoxide radical.

[8] = in vitro; cited from earlier work
[9] = test system: cells; details: in vitro; cited from earlier work
[10] = mice, after the barrier is established at about 7-12 days of age; cited from earlier work
[11] = SOD2−/− mice treated with free radical scavenging compounds (Table 4)
[12] = Sod2CJE(−/−), Large litter size (>6 pups), with MnTBAP, N=16
[13] = Sod2CJE(−/−), Small litter size (≦6 pups), with MnTBAP, N=15
[14] = Sod2CJE(−/−), all litter sizes, with MnTBAP 5 mg/kg daily IP, N=31, days of age

In the case of `O=C(O)c1ccc(-c2c3nc(c(-c4ccc(C(=O)O)cc4)c4ccc([nH]4)c(-c4ccc(C(=O)O)cc4)c4nc(c(-c5ccc(C(=O)O)cc5)c5ccc2[nH]5)C=C4)C=C3)cc1.[Mn]` [MnTBAP, Manganese 5,10,15,20-tetrakis(4-benzoic acid) porphyrin], the “mean age of survival” value ([1]; MnSOD(−/−) mice, 5 mg/kg daily intraperitoneal, all litters, n=31, ±SD) is reported as 16.4 ± 5.8 days, the “proportion of mice that lived to greater than or equal to 20 days of age” value ([1]; MnSOD(−/−) mice, 5 mg/kg daily intraperitoneal, n=31) is reported as 70% and the “Mean Lifespan” value [1, 11] is reported as 14 days. The mean life-span [1] was 16 days, the “Mean Lifespan” value [1, 12] was 16.1 and the “Median (lifespan)” value [1, 12] was 21. The “Mean Lifespan” value [1, 13] was 16.6, the “Median (lifespan)” value [1, 13] was 19 and the “Mean Lifespan” value [1, 14] was 16.4. The “Median (lifespan)” value [1, 14] was 20, the “mean age of survival” value ([1]; litters of more than six pups (unrestricted), ±SD) was 16.1 ± 6.6 days and the mean survival ([1]; litters with six or less pups (restricted), ±SD) was 11.4 ± 4.8 days. The “proportion of treated Sod2CJE(−/−) animals with liver lipid levels comparable to untreated Sod2CJE(−/−) animals of 6-10 days” value ([2]; 25 treated animals examined at 12, 14 and 17 days of age (2/25)) was 8%, the “Lipid % Control” value ([2]; 12 days old, n=9) was 23% and the “Lipid Mean (score)” value ([2]; 12 days old, n=9) was 0.9. The “Lipid Mode (score)” value ([2]; 12 days old, n=9) was 0, the “Lipid % Control” value ([2]; 14 days old, n=8) was 23% and the “Lipid Mean (score)” value ([2]; 14 days old, n=8) was 0.9. For the same molecule, the “Lipid Mode (score)” value ([2]; 14 days old, n=8) was 0.5, the “Lipid % Control” value ([2]; 17 days old, n=8) was 40% and the “Lipid Mean (score)” value ([2]; 17 days old, n=8) was 1.6. The “Lipid Mode (score)” value ([2]; 17 days old, n=8) was 2, the “accumulation of lipid in the liver” value [2] was “reduced” and the “effect on cardiac defect (dilated cardiomyopathy)” value [3] was “prevented the cardiac defect”. For the same molecule, the “neurological and behavioral phenotype” value [4] was “progressive motor impairment”, the “toxicity (pathological changes in liver or brain)” value [5] was “not toxic” and the “tissue SDH inhibition” value [6] was “still inhibited”. For the same molecule, the “transmission to the milk of nursing mothers” value [7] was “insufficient transmission”, the “superoxide-degrading activity relative to Sod1/Sod2 when compared by weight” value [8] was “about 10%” and the permeability to cells [9] was “permeable to cells”. The “crossing of the blood-brain barrier” value [10] was “does not cross the blood-brain barrier”.

With `[Cl-].[Mn+3].[O-]c1ccccc1C=NCCN=Cc1ccccc1[O-]` [Euk-8] the “Mean Lifespan” value [1, 11] was 22 days, the mean life-span [1] was 22 days and the “accumulation of lipid in the liver” value [2] was “rescued”. For the same molecule, the “crossing of the blood brain barrier” value ([4]; concluded from beneficial effects on neuronal function in Sod2CJE(−/−) mouse) was “crosses the blood brain barrier”, the “neurological and behavioral phenotype” value [4] was “rescue of the neurological and behavioral phenotype” and the spongiform encephalopathy ([4]; treated Sod2CJE(−/−) mouse, at 17 days) was “absent”. The “tissue SDH inhibition” value [6] was “rescued”.
